Measured values published in article PMC10353187, “Discovery of a new potent oxindole multi-kinase inhibitor among a series of designed 3-alkenyl-oxindoles with ancillary carbonic anhydrase inhibitory activity as antiproliferative agents” (BMC Chemistry, 2023).

Legend:
[1] = molecular target: hCA I (Homo sapiens, UniProt P00915); experiment: Stopped flow CO2 hydrase assay
[2] = test system: UO-31; experiment: NCI-60 single-dose antiproliferative assay (SRB); type: cell-based, human; settings: UO-31, Renal cancer; for inhibition at 10 µM: Homo sapiens, UO-31, 10 μM single dose, read-out: Cell Growth inhibition Percent
Description: (§1) From the newly synthesized compounds, eleven compounds (4c, 4d, 5, 9a, 9b, 11a, 11b, 13b, 13c, 15b, and 15c) were selected by the National Cancer Institute (NCI) Developmental Therapeutics Program (DTP), Bethesda, Maryland, USA for the in vitro anti-proliferative activity evaluation. The selected compounds were examined at 10 μM dose against the NCI 60-cell line panel. This panel consists of nine cell line groups of leukemia, non-small cell lung carcinoma (NSCLC), melanoma, colon, CNS, ovarian, renal, prostate, and breast cancers. The results are reported as mean-graph of the percent growth relative to control and presented as percentage growth inhibition (GI%), furthermore, mean GI% of each compound over all panel cell lines was calculated (Table 1; Additional file 1; S3: In vitro biological activity).
(§2) From the newly synthesized compounds, eleven compounds were selected by the National Cancer Institute (NCI) Developmental Therapeutics Program (DTP), Bethesda, Maryland, USA for the in vitro anti-proliferative activity evaluation (For further details see supplementary materials).
(§3) NCI In-vitro Cancer Screening is a two-phase procedure that starts with the assessment of all compounds against the sixty NCI cell line panel depicting leukemia, NSCLC, CNS cancer, melanoma, prostate cancer, breast cancer, renal cancer, colon cancer and ovarian cancer cell lines at a single point of 10μM. The output from the single-dose screen is reportable as a mean graph.
(§4) The human tumor cell lines of the cancer screening panel were grown in RPMI 1640 medium containing 5% fetal bovine serum and 2 mM L-glutamine. For a typical screening experiment, cells were inoculated into 96 well microtiter plates in […] at plating densities ranging from 5000 to 40,000 cells/well depending on the doubling time of individual cell lines. After cell inoculation, the microtiter plates were incubated at 37 °C, 5% CO2, 95% air and 100% relative humidity for 24 h prior to addition of experimental drugs. After 24 h, two plates of each cell line were fixed in situ with trichloroacetic acid (TCA), to represent a measurement of the cell population for each cell line at the time of drug addition (Tz). Experimental drugs were solubilized in dimethyl sulfoxide at 400-fold the desired final maximum test concentration and stored frozen prior to use. At the time of drug addition, an aliquot of frozen concentrate was thawed and diluted to twice the desired final maximum test concentration with complete medium containing 50 µg/ml gentamicin. Aliquot of 100 µl of the drug dilution was added to the appropriate microtiter wells already containing 100 µl of medium, resulting in the required final drug concentration (10 µM). Triplicate wells were prepared for each individual dose. Following drug addition, the plates were incubated for an additional 48 h at 37 °C, 5% CO2, 95% air, and 100% relative humidity. For adherent cells, the assay was terminated by the addition of cold TCA. Cells were fixed in situ by the gentle addition of 50 µl of cold 50% (w/v) TCA (final concentration, 10% TCA) and incubated for 60 min at 4 °C. The supernatant was discarded, and the plates were washed five times with tap water and air dried. Sulforhodamine B (SRB) solution (100 µl) at 0.4% (w/v) in 1% acetic acid was added to each well, and plates were incubated for 10 min at room temperature. After staining, unbound dye was removed by washing five times with 1% acetic acid and the plates were air dried. Bound stain was subsequently solubilized with 10 mM trizma base, and the absorbance was read on an automated plate reader at a wavelength of 515 nm. For suspension cells, the methodology was the same except that the assay was terminated by fixing settled cells at the bottom of the wells by gently adding 50 µl of 80% TCA (final concentration, 16% TCA). […]

[3] = molecular target: hCA IX (Homo sapiens, UniProt Q16790); experiment: Stopped flow CO2 hydrase assay; settings: for Selectivity ratio I/IX: Ki hCA I / Ki hCA IX; for Selectivity ratio II/IX: Ki hCA II / Ki hCA IX
[4] = test system: NCI 60 cancer cell lines; experiment: NCI-60 single-dose antiproliferative assay, mean over panel; type: cell-based; settings: Homo sapiens; 10 μM single dose; mean over all NCI panel cell lines; read-out: MEAN % Growth inhibition
Description: as §1, §2, §3, §4

[5] = molecular target: hCA II (Homo sapiens, UniProt P00918); experiment: Stopped flow CO2 hydrase assay
[6] = molecular target: hCA XII (Homo sapiens, UniProt O43570); experiment: Stopped flow CO2 hydrase assay; settings: for Selectivity ratio I/XII: Ki hCA I / Ki hCA XII; for Selectivity ratio II/XII: Ki hCA II / Ki hCA XII
Sequence of hCA XII (O43570 25-354): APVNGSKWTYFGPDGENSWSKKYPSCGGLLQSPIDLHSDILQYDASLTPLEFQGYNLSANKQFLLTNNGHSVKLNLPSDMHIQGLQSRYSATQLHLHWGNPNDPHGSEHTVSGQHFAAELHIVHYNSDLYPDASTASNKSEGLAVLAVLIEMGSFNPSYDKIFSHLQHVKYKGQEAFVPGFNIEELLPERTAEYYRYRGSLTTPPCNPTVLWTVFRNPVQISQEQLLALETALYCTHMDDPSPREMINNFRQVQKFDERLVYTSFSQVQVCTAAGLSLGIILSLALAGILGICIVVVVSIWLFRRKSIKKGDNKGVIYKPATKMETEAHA

[7] = test system: EKVX; experiment: NCI-60 single-dose antiproliferative assay (SRB); type: cell-based; settings: Homo sapiens, 10 μM single dose, Non-small cell lung cancer, read-out: Cell Growth inhibition Percent
Description: as §1, §2, §3, §4

[8] = test system: SK-MEL-5; experiment: NCI-60 single-dose antiproliferative assay (SRB); type: cell-based; settings: Homo sapiens; 10 μM single dose; SK-MEL-5, Melanoma; read-out: Cell Growth inhibition Percent
Description: as §1, §2, §3, §4

[9] = test system: LOX IMVI; experiment: NCI-60 single-dose antiproliferative assay (SRB); type: cell-based; settings: Homo sapiens, 10 μM single dose, Melanoma, read-out: Cell Growth inhibition Percent
Description: as §1, §2, §3, §4

[10] = test system: MCF7; experiment: NCI-60 single-dose antiproliferative assay (SRB); type: cell-based; settings: Homo sapiens; 10 μM single dose; MCF7, Breast cancer; read-out: Cell Growth inhibition Percent
Description: as §1, §2, §3, §4

[11] = test system: MDA-MB-231/ATCC; experiment: NCI-60 single-dose antiproliferative assay (SRB); type: cell-based; settings: Homo sapiens, 10 μM single dose, Breast cancer, read-out: Cell Growth inhibition Percent
Description: as §1, §2, §3, §4

[12] = test system: IGROV1; experiment: NCI-60 single-dose antiproliferative assay (SRB); type: cell-based; settings: Homo sapiens, IGROV-1; 10 μM single dose; IGROV1, Ovarian Cancer; read-out: Cell Growth inhibition Percent
Description: as §1, §2, §3, §4

[13] = test system: NCI-H23; experiment: NCI-60 single-dose antiproliferative assay (SRB); type: cell-based; settings: Homo sapiens; 10 μM single dose; NCI-H23, Non-small cell lung cancer; read-out: Cell Growth inhibition Percent
Description: as §1, §2, §3, §4

[14] = test system: HOP-62; experiment: NCI-60 single-dose antiproliferative assay (SRB); type: cell-based; settings: Homo sapiens; 10 μM single dose; HOP-62, Non-small cell lung cancer; read-out: Cell Growth inhibition Percent
Description: as §1, §2, §3, §4

[15] = test system: NCI-H226; experiment: NCI-60 single-dose antiproliferative assay (SRB); type: cell-based; settings: Homo sapiens; 10 μM single dose; NCI-H226, Non-small cell lung cancer; read-out: Cell Growth inhibition Percent
Description: as §1, §2, §3, §4

[16] = test system: SR; experiment: NCI-60 single-dose antiproliferative assay (SRB); type: cell-based; settings: Homo sapiens, 10 μM single dose, Leukemia, read-out: Cell Growth inhibition Percent
Description: as §1, §2, §3, §4

[17] = test system: KM12; experiment: NCI-60 single-dose antiproliferative assay (SRB); type: cell-based; settings: Homo sapiens; 10 μM single dose; KM12, Colon cancer; read-out: Cell Growth inhibition Percent
Description: as §1, §2, §3, §4

[18] = test system: SNB-75; experiment: NCI-60 single-dose antiproliferative assay (SRB); type: cell-based; settings: Homo sapiens; 10 μM single dose; SNB-75, CNS cancer; read-out: Cell Growth inhibition Percent
Description: as §1, §2, §3, §4

Sequence of hCA I (P00915 whole entry): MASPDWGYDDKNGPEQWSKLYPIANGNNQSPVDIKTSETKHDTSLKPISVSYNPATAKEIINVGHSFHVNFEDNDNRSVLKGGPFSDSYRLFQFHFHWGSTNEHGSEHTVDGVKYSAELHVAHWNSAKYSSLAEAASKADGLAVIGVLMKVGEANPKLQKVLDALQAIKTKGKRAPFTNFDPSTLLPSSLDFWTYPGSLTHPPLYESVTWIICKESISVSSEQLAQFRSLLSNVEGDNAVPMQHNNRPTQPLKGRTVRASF

Compound	Ki [1] [µM]	Ki [3] [µM]	Ki [5] [µM]	Ki [6] [µM]	melting point [°C]	Selectivity ratio I/IX [3]	inhibition at 10 µM [2] [%]	inhibition at 10 µM [4] [%]	inhibition at 10 µM [7] [%]	inhibition at 10 µM [8] [%]	inhibition at 10 µM [9] [%]	inhibition at 10 µM [10] [%]	inhibition at 10 µM [11] [%]	inhibition at 10 µM [12] [%]	inhibition at 10 µM [13] [%]	inhibition at 10 µM [14] [%]	inhibition at 10 µM [15] [%]	inhibition at 10 µM [16] [%]	inhibition at 10 µM [17] [%]	inhibition at 10 µM [18] [%]	also measured
O=C1Nc2ccccc2C1=CNc1ccc(C(=O)Nc2ccc(S(=O)(=O)Nc3ncccn3)cc2)cc1 [Compound 9b, 4-{[(2-Oxoindolin-3-ylidene)methyl]amino}-N-{4-[N-(pyrimidin-2-yl)sulfamoyl]phenyl}benzamide]	> 10	> 10	> 10	> 10	> 300	–	43.7	2.55	38.5	6.95	7.22	4.97	3.83	21.3	9.28	27.7	12.2	9.02	43.9	31.3	–
O=C1Nc2ccccc2C1=CNc1ccc(C(=O)C=CNc2nccs2)cc1 [Compound 13c, 3-{[(4-{3-[Thiazol-2-ylamino]acryloyl}phenyl)amino]methylene}indolin-2-one]	> 10	> 10	> 10	> 10	260 to 262	–	16.2	3.28	16.8	5.29	9.06	28.1	10.7	5.94	25.9	12	1.09	6	59	–	–
O=C(Nc1ccc(NC=C2C(=O)Nc3ccccc32)cc1)Nc1nccs1 [Compound 15c, 1-{4-[((2-Oxoindolin-3-ylidene)methyl)amino]phenyl}-3-(thiazol-2-yl)urea]	> 10	> 10	> 10	> 10	–	–	51.6	61.8	65.4	73.2	64.9	77.3	52	70.5	62.2	62.7	70	89.3	40.8	66.6	–

Now those with a lower Ki [1], led by results:

Ki [1] [µM]	Ki [3] [µM]	Ki [5] [µM]	Ki [6] [µM]	melting point [°C]	Selectivity ratio I/IX [3]	Compound	inhibition at 10 µM [2] [%]	inhibition at 10 µM [4] [%]	inhibition at 10 µM [7] [%]	inhibition at 10 µM [8] [%]	inhibition at 10 µM [9] [%]	inhibition at 10 µM [10] [%]	inhibition at 10 µM [11] [%]	inhibition at 10 µM [12] [%]	inhibition at 10 µM [13] [%]	inhibition at 10 µM [14] [%]	inhibition at 10 µM [15] [%]	inhibition at 10 µM [16] [%]	inhibition at 10 µM [17] [%]	inhibition at 10 µM [18] [%]	also measured
6.32	> 10	8.67	> 10	> 300	–	O=C1Nc2ccccc2C1=CNc1ccc(C(=O)O)cc1 [Compound 4c, 4-{[(2-Oxoindolin-3-ylidene)methyl]amino}benzoic acid]	49.7	3.71	24.3	1.74	6.93	1.59	4.54	24.1	7.13	32	11.4	4.7	49.2	44.3	–
0.0084	0.0842	0.0039	0.0087	210 to 216	0.100	NS(=O)(=O)c1nnc(NC=C2C(=O)Nc3ccccc32)s1 [Compound 4d, 5-{[(2-Oxoindolin-3-ylidene)methyl]amino}-1,3,4-thiadiazole-2-sulfonamide]	27.5	–	15.8	1.52	–	12.4	7.66	23.5	3.7	13.4	4.95	1.71	4.63	18.8	Selectivity ratio II/IX [3]: 0.046; Selectivity ratio I/XII [6]: 0.966; Selectivity ratio II/XII [6]: 0.448
6.35	0.208	0.913	0.0424	158 to 160	30.48	NS(=O)(=O)N/C=C1/C(=O)Nc2ccccc21 [Compound 5, 3-(sulfamidmethylene)indoline-2-one]	34.6	–	18.8	1.04	–	6.19	5.14	18.6	13.3	9.49	8.23	–	1.51	16.5	Selectivity ratio II/IX [3]: 4.39; Selectivity ratio I/XII [6]: 149.65; Selectivity ratio II/XII [6]: 21.54
9.11	7.86	2.66	8.57	–	1.16	O=C1Nc2ccccc2C1=CNc1ccc(CNc2ccc(S(=O)(=O)Nc3ncccn3)cc2)cc1 [Compound 11b, 4-{[4-({[2-Oxoindolin-3-ylidene]methyl}amino)benzyl]amino}-N-(pyrimidin-2-yl)benzenesulfonamide]	39.3	7.38	16	15.2	8.3	37.2	8.34	23.5	17.4	11.3	16.8	42.2	77.3	16.6	Cell Growth inhibition Percent ([2]; 10 μM single dose): 39.47%; Selectivity ratio II/IX [3]: 0.34; Selectivity ratio I/XII [6]: 1.06; Selectivity ratio II/XII [6]: 0.31
